Results on four compounds are retold here after patent publication US7632971B2, “Method of crystallization of bicalutamide” (Sumitomo Chemical Company, Limited, priority 2004, dated 2009).

Series [1] can be described thus: Specific surface area by nitrogen gas absorption (BET equation, COULTER SA3100). The format is physicochemical. How it is done:
The specific surface area in the invention is defined as a surface area per 1 g of particles, and represented by a value measured by the following method.
A sample is deaerated overnight in a vacuum dryer at 40° C. as a pre-treatment before being subjected to a measurement. The measurement is conducted as follows: a given amount of an absorbing gas (nitrogen gas) is absorbed by a sample, the values of a relative pressure (P/PO) and an absorbed gas volume are determined in each absorption step, and then a specific surface area is calculated according to the BET equation using the values. COULTER™ SA3100™ Series Surface Area and Pore size Analyzer is used as a measurement device. After measuring the sample mentioned above, the specific surface area at around the relative pressure of 0.05 to 0.2 is calculated.
Furthermore, the specific surface area of the crystals obtained by one time milling was measured with the COULTER™ SA3100™ Series Surface Area and Pore size Analyzer mentioned above under the same conditions mentioned above.

A short description of series [2]: Particle size distribution by laser diffraction (Mastersizer 2000). It counts as physicochemical. How it is done:
In the invention, Dpn is a unit referring to a particle size of crystal, and n is a value covering from 1 to 100. For example, Dp10 is defined as a diameter of the particle where particles are accumulated from the one having a smaller size and reach to the accumulated particle volume of 10%.
Add 1000 mL of water to 5 g of Triton X-100, mix well. Add 0.1 g of bicalutamide and sonicate for 15 minutes, the filter using 0.45 μm membrane filter and use this solution as the dispersant. Rinse the dispersion unit and the measurement instrument with the dispersant and replace it in the instruments with the fresh one, then measure background. After weighing, suspend about 0.05 g of bicalutamide crystals in the 20 ml of dispersant and sonicate for 5 minutes, and make up with the dispersant to 100 mL. Redisperse this suspension with a pipet and pour this sample into the dispersion unit so that an obscuration is 10.0 to 20.0%. After the stabilizing period of 12 minutes, start the measurement under the following condition. Determine 10% diameter, 50% diameter, and 90% diameter according to an integrated distribution curve to be Dp10, Dp50 and Dp90, respectively.
• Instrument model: Laser diffraction particle size analyzer Mastersizer 2000 (Malvern) • Dispersion unit: Hydro2000S • Stirrer speed of dispersion unit: 2300 rpm • Particle Refraction Index of sample: 1.670 Absorption: 0.001 • Dispersant Refraction Index: 1.330 • Analysis model: General purpose • Calculation sensitivity: Enhanced • Particle shape: Irregular • Size range: 0.020-2000.000 μm • Measurement integration period: 12 seconds • Backgroupd integration period: 12 seconds (Specific Surface Area)
With using the above-mentioned laser diffraction particle size distribution analyzer (Mastersizer 2000 (Malvern)), a particle size distribution was measured under the same conditions mentioned above.

The mark [3] stands for this setting: crystals as obtained by crystallization, not milled.
[4] abbreviates: crystals obtained by one time milling (spiral jet-mill 50AS).
Where [5] appears, read: crystals obtained by two times milling (CT-401 ATOMIZER).

On to `CC(O)(CS(=O)(=O)c1ccc(F)cc1)C(=O)Nc1ccc(C#N)c(C(F)(F)F)c1` (centres unmarked) [Comparative Example 2, bicalutamide], for which the specific surface area in series [1] (setting [3]) is on record as 0.2 m^2/g. In addition, in series [2] (setting [3]), the “Dp10 (particle size)” value was 39.5 μm, the “Dp50 (particle size)” value came to 119.6 μm and the “Dp90 (particle size)” value amounted to 273.1 μm.

For the compound `CC(O)(CS(=O)(=O)c1ccc(F)cc1)C(=O)Nc1ccc(C#N)c(C(F)(F)F)c1` (centres unmarked) [Example 1, bicalutamide], in series [1] (crystals obtained by one time milling, relative pressure 0.05 to 0.2), the specific surface area was found to be 1.8 m^2/g. For the same compound, in series [2] (setting [3]), the “Dp10 (particle size)” value amounted to 5.3 μm, the “Dp50 (particle size)” value was found to be 14.5 μm and the “Dp90 (particle size)” value worked out at 30.6 μm. Also, in series [2] (setting [4]), the “Dp10 (particle size)” value is reported as 1.8 μm, the “Dp50 (particle size)” value was found to be 4.2 μm and the “Dp90 (particle size)” value was determined as 10.5 μm.

With `CC(O)(CS(=O)(=O)c1ccc(F)cc1)C(=O)Nc1ccc(C#N)c(C(F)(F)F)c1` (centres unmarked) [Comparative Example 1, bicalutamide], in series [2] (setting [3]), the “Dp10 (particle size)” value is given as 45.6 μm, the “Dp50 (particle size)” value amounted to 90.7 μm and the “Dp90 (particle size)” value is 177.6 μm. For the same compound, in series [2] (setting [5]), the “Dp10 (particle size)” value was determined as 3.1 μm, the “Dp50 (particle size)” value came out at 15.9 μm and the “Dp90 (particle size)” value is given as 57.8 μm.

On to `CC(O)(CS(=O)(=O)c1ccc(F)cc1)C(=O)Nc1ccc(C#N)c(C(F)(F)F)c1` (centres unmarked) [bicalutamide], for which, in series [2] (setting [3]), the “Dp10 (particle size)” value came to 45.6 μm, the “Dp50 (particle size)” value was 90.7 μm and the “Dp90 (particle size)” value amounted to 177.6 μm.
